Measurements published in article PMC3844044 (Journal of medicinal chemistry, 2013).

Key:
proteasome = conditions: read-out: reported IC50 for proteasome inhibition; cited from earlier work
[1] = test system: bortezomib-resistant THP-1 cell line (BTZ500); assay: Cell viability, bortezomib-resistant THP-1 cell line; assay type: cell-based, human
[2] = conversion to inactive aromatic imidazole 5; ref 13b; cited from earlier work
[3] = test system: NF-κB mediated gene transcription; conditions: read-out: NF-κB-luc IC50; Table 1; cell culture, previously reported; cited from earlier work
[4] = target: purified human 20S proteasome (Homo sapiens, UniProt P28074); assay: Inhibition of the chymotryptic-like activity of purified human 20S proteasome; assay type: biochemical
[5] = test system: human myelomonocytic THP-1 cells; assay: Cell viability, THP-1 wild type cells, 72 hours; assay type: cell-based; conditions: screened at 10 μM and 5 μM

CC(C)C[C@H](NC(=O)[C@H](Cc1ccccc1)NC(=O)c1cnccn1)B(O)O [Bortezomib, bortezomib, reference compound]
IC50 (proteasome): […] | % cell viability Resistant ([1]; BTZ500, bortezomib at 0.5 μM, 72 hours): unable to induce significant cytotoxicity

c1ccc(CN2C(c3ccccc3)=N[C@H](c3ccccc3)[C@H]2c2ccccc2)cc1 [compound 2]
stability upon standing [2]: slowly isomerised and dehydrogenated

c1ccc(CN2C(c3ccccc3)=N[C@@H](c3ccccc3)[C@H]2c2ccccc2)cc1 [compound 3]
IC50 [3]: > 10000 nM | stability upon standing [2]: slowly isomerised and dehydrogenated | proteasome inhibitory activity (in words) [4]: depleted of activity

c1ccc(CN2CCN=C2c2ccccc2)cc1 [compound 4]
IC50 [3]: > 10000 nM | proteasome inhibitory activity (in words) [4]: depleted of activity

c1ccc(Cn2c(-c3ccccc3)nc(-c3ccccc3)c2-c2ccccc2)cc1 [compound 5]
IC50 [3]: > 10000 nM | proteasome inhibitory activity (in words) [4]: depleted of activity

CCOC(=O)[C@]1(c2ccccc2)N=C(c2ccccc2)N[C@@H]1c1ccccc1 [compound 11]
proteasome inhibitory activity (in words) [4]: depleted of all activity

CCOC(=O)[C@]1(c2ccccc2)N=C(c2ccccc2)N(C(C)=O)[C@@H]1c1ccccc1 [compound 12]
proteasome inhibitory activity (in words) [4]: depleted of activity

CCOC(=O)[C@]1(c2ccccc2)N=C(c2ccccc2)N(C(=O)c2ccccc2)[C@@H]1c1ccccc1 [compound 13]
proteasome inhibitory activity (in words) [4]: depleted of activity

CCOC(=O)[C@]1(c2ccccc2)N=C(c2ccccc2)N(S(=O)(=O)c2ccc(C)cc2)[C@@H]1c1ccccc1 [compound 14]
proteasome inhibitory activity (in words) [4]: depleted of activity

CCOC(=O)[C@]1(c2ccccc2)N=C(c2ccccc2)N(Cc2ccccc2)[C@@H]1c1ccncc1 [compound 20]
proteasome inhibitory activity (in words) [4]: inactive

CCOC(=O)[C@]1(c2ccccc2)N=C(c2ccccc2)N(Cc2ccccc2)[C@@H]1c1ccc(NCc2ccccc2)cc1 [compound 29]
IC50 ([4]; IC50 proteasome inhibition): 500 nM

CCOC(=O)[C@]1(c2ccccc2)N=C(c2ccc(OC)cc2)N(Cc2ccccc2)[C@@H]1c1ccc(N)cc1 [compound 37]
cytotoxic activity (in words), THP-1 wild type [5]: weak cytotoxic activity | cytotoxic activity (in words), bortezomib-resistant BTZ500 ([1]; screened at 10 μM and 5 μM): weak cytotoxic activity
